Results from ChEMBL document CHEMBL4354827, “Discovery of Novel, Potent, Brain-Permeable, and Orally Efficacious Positive Allosteric Modulator of α7 Nicotinic Acetylcholine Receptor [4-(5-(4-Chlorophenyl)-4-methyl-2-propionylthiophen-3-yl)benzenesulfonamide]: Structure-Activity Relationship and Preclinical Characterization” (J Med Chem, 2020).

What was measured:
[1] = Drug level in Sprague-Dawley rat cerebrospinal fluid at 3 mg/kg, po; format: ADME, organism-based; conditions: in vivo
[2] = Drug level in rat plasma at 10 mg/kg, ip after 120 mins by HPLC-LC/MS analysis; format: ADME, organism-based
[3] = Ratio of drug level in rat brain to plasma at 10 mg/kg, ip by HPLC-LC/MS analysis; format: ADME, organism-based; conditions: brain and plasma, read-out: BPR
Rattus norvegicus [4] = assay: Memory enhancement effect in time-delay induced Wistar rat model of amnesia assessed as exploration time for object1 in acquisition trial at 3 mg/kg, po administered as single dose and measured on day 8 by novel object recognition test (reference value: 13.95 sec); format: functional
Rattus norvegicus [5] = assay: Memory enhancement effect in time-delay induced Wistar rat model of amnesia assessed as exploration time for object2 in acquisition trial at 3 mg/kg, po administered as single dose and measured on day 8 by novel object recognition test (reference value: 16.33 sec); format: functional
Rattus norvegicus [6] = assay: Memory enhancement effect in time-delay induced Wistar rat model of amnesia assessed as exploration time for familiar object in retention trial at 3 mg/kg, po administered as single dose and measured on day 9 by novel object recognition test (reference value: 13.05 sec); format: functional
Rattus norvegicus [7] = assay: Memory enhancement effect in time-delay induced Wistar rat model of amnesia assessed as increase in exploration time for novel object in retention trial at 3 mg/kg, po administered as single dose and measured on day 9 by novel object recognition test (reference value: 12.06 sec); format: functional
Rattus norvegicus [8] = assay: Memory enhancement effect in scopolamine-induced Wistar rat model of amnesia assessed as exploration time for object1 in acquisition trial at 0.15 mg/kg, po administered as single dose and measured on day 8 by novel object recognition test (reference value: 16.11 sec); format: functional
Rattus norvegicus [9] = assay: Memory enhancement effect in scopolamine-induced Wistar rat model of amnesia assessed as exploration time for object2 in acquisition trial at 0.15 mg/kg, po administered as single dose and measured on day 8 by novel object recognition test (reference value: 15.63 sec); format: functional
Rattus norvegicus [10] = assay: Memory enhancement effect in scopolamine-induced Wistar rat model of amnesia assessed as exploration time for familiar object in retention trial at 0.15 mg/kg, po administered as single dose and measured on day 9 by novel object recognition test (reference value: 8.59 sec); format: functional
Rattus norvegicus [11] = assay: Memory enhancement effect in scopolamine-induced Wistar rat model of amnesia assessed as increase in exploration time for novel object in retention trial at 0.15 mg/kg, po administered as single dose and measured on day 9 by novel object recognition test (reference value: 12.09 sec); format: functional
Rattus norvegicus [12] = assay: Memory enhancement effect in time-delay induced Wistar rat model of amnesia assessed as exploration time for object1 at 3 mg/kg, po administered as single dose after acquisition trial by novel object recognition test (reference value: 19.09 sec); format: functional
Rattus norvegicus [13] = assay: Memory enhancement effect in time-delay induced Wistar rat model of amnesia assessed as exploration time for object2 at 3 mg/kg, po administered as single dose after acquisition trial by novel object recognition test (reference value: 21.07 sec); format: functional
Rattus norvegicus [14] = assay: Memory enhancement effect in time-delay induced Wistar rat model of amnesia assessed as exploration time for familiar object at 3 mg/kg, po administered as single dose after acquisition trial by novel object recognition test (reference value: 10.6 sec); format: functional
Rattus norvegicus [15] = assay: Memory enhancement effect in time-delay induced Wistar rat model of amnesia assessed as exploration time for novel object at 3 mg/kg, po administered as single dose after acquisition trial by novel object recognition test (reference value: 12.81 sec); format: functional
Rattus norvegicus [16] = assay: Memory enhancement effect in time-delay induced Wistar rat model of amnesia assessed as exploration time for object1 in acquisition trial at 0.05 mg/kg, po for 7 days and measured on day 8 by novel object recognition test (reference value: 13.73 sec); format: functional
Rattus norvegicus [17] = assay: Memory enhancement effect in time-delay induced Wistar rat model of amnesia assessed as exploration time for object2 in acquisition trial at 0.05 mg/kg, po for 7 days and measured on day 8 by novel object recognition test (reference value: 11.76 sec); format: functional
Rattus norvegicus [18] = assay: Memory enhancement effect in time-delay induced Wistar rat model of amnesia assessed as exploration time for familiar object in retention trial at 0.05 mg/kg, po for 7 days and measured on day 8 by novel object recognition test (reference value: 10.20 sec); format: functional
Rattus norvegicus [19] = assay: Memory enhancement effect in time-delay induced Wistar rat model of amnesia assessed as exploration time for novel object in retention trial at 0.05 mg/kg, po for 7 days and measured on day 8 by novel object recognition test (reference value: 15.37 sec); format: functional
Rattus norvegicus [20] = assay: Memory enhancement effect in scopolamine-induced Wistar rat model of amnesia assessed as exploration time for object1 in acquisition trial at 0.05 mg/kg, po for 7 days and measured on day 8 by novel object recognition test (reference value: 16.11 sec); format: functional
Rattus norvegicus [21] = assay: Memory enhancement effect in scopolamine-induced Wistar rat model of amnesia assessed as exploration time for object2 in acquisition trial at 0.05 mg/kg, po for 7 days and measured on day 8 by novel object recognition test (reference value: 15.63 sec); format: functional
Rattus norvegicus [22] = assay: Memory enhancement effect in scopolamine-induced Wistar rat model of amnesia assessed as exploration time for familiar object in retention trial at 0.05 mg/kg, po for 7 days and measured on day 8 by novel object recognition test (reference value: 8.59 sec); format: functional
Rattus norvegicus [23] = assay: Memory enhancement effect in scopolamine-induced Wistar rat model of amnesia assessed as exploration time for novel object in retention trial at 0.05 mg/kg, po for 7 days and measured on day 8 by novel object recognition test (reference value: 12.09 sec); format: functional
Rattus norvegicus [24] = assay: Improvement in social recognition time delay-induced Sprague-Dawley rat model of amnesia assessed as increase in reduction in social investigation time at 3 mg/kg, po administered as single dose prior to 1 hr training and measured after 30 mins (reference value: 0.39%); format: functional; design: scale not given: the % may be the effect or the level left
Rattus norvegicus [25] = assay: Improvement in social recognition scopolamine-induced Sprague-Dawley rat model of amnesia assessed as increase in reduction in social investigation time at 3 mg/kg, po administered as single dose prior to 1 hr training and measured after 30 mins (reference value: 9.81%); format: functional; design: scale not given: the % may be the effect or the level left
Rattus norvegicus [26] = assay: Improvement in social recognition time delay-induced Sprague-Dawley rat model of amnesia assessed as increase in reduction in social investigation time at 0.15 mg/kg, po for 7 days and measured on day 9 (reference value: -0.5%); format: functional; design: scale not given: the % may be the effect or the level left
Rattus norvegicus [27] = assay: Improvement in social recognition scopolamine-induced Sprague-Dawley rat model of amnesia assessed as increase in reduction in social investigation time at 0.15 mg/kg, po for 7 days measured after 24 hrs (Rvb =6.59%); format: functional; design: scale not given: the % may be the effect or the level left
[28] = Drug level in Wistar rat brain at 3 mg/kg, po after 2 hrs by LC-MS/MS analysis; format: ADME, organism-based; conditions: read-out: Drug uptake
[29] = Drug concentration in Wistar rat plasma at 3 mg/kg, po after 2 hrs by LC-MS/MS analysis; format: ADME, organism-based
[30] = Ratio of drug level in brain to plasma in Wistar rat at 3 mg/kg, po after 2 hrs by LC-MS/MS analysis; format: ADME, organism-based; conditions: brain and plasma, read-out: BPR
[31] = Drug concentration in Sprague-Dawley rat brain at 3 mg/kg, po after 1 hr; format: ADME, organism-based; conditions: read-out: Drug uptake
[32] = Drug concentration in Sprague-Dawley rat plasma at 3 mg/kg, po after 1 hr; format: ADME, organism-based
[33] = Ratio of drug level in Sprague-Dawley rat brain to plasma at 3 mg/kg, po after 1 hr; format: ADME, organism-based; conditions: brain and plasma, read-out: BPR
[34] = Drug level in DBA/2 mouse brain at 0.3 mg/kg, iv after 10 mins; format: ADME, organism-based; conditions: read-out: Drug uptake
[35] = Drug level in DBA/2 mouse brain at 0.3 mg/kg, iv after 90 mins; format: ADME, organism-based; conditions: read-out: Drug uptake
[36] = Drug level in NSA mouse brain at 0.3 mg/kg, po after 120 to 150 mins; format: ADME, organism-based; conditions: in vivo, read-out: Drug uptake
[37] = Drug concentration in Swiss mouse brain at 40 mg/kg, sc after 30 mins by LC-MS analysis; format: ADME, organism-based; conditions: read-out: Drug uptake
[38] = Drug concentration in Swiss mouse plasma at 40 mg/kg, sc after 30 mins by LC-MS analysis; format: ADME, organism-based
[39] = Ratio of drug level in Swiss mouse brain to plasma at 40 mg/kg, sc after 30 mins by LC-MS analysis; format: ADME, organism-based; conditions: brain and plasma, read-out: BPR

## COc1ccc(Cl)cc1C(=O)N[C@@H]1[C@@H](c2ccc(S(N)(=O)=O)cc2)C1(C)C
[1]
  Drug uptake: 12.1 ng/mL

## O=C(Nc1cc(Cl)ccc1O)Nc1cc(C(F)(F)F)ccc1Cl
[2]
  concentration at 2 h: 172 ng/mL
[3]
  Kp: 0.5

## CCC(=O)c1cc(-c2ccc(Cl)cc2)n(-c2ccc(S(N)(=O)=O)cc2)c1C
Rattus norvegicus [4]
  Time: 25.62 s
Rattus norvegicus [5]
  Time: 20.37 s
Rattus norvegicus [6]
  Time: 11.47 s
Rattus norvegicus [7]
  Time: 28.31 s
Rattus norvegicus [8]
  Time: 14.7 s
Rattus norvegicus [9]
  Time: 14.75 s
Rattus norvegicus [10]
  Time: 5.7 s
Rattus norvegicus [11]
  Time: 16.33 s
Rattus norvegicus [12]
  Time: 12.7 s
Rattus norvegicus [13]
  Time: 17.17 s
Rattus norvegicus [14]
  Time: 8.05 s
Rattus norvegicus [15]
  Time: 14.61 s
Rattus norvegicus [16]
  Time: 11.58 s
Rattus norvegicus [17]
  Time: 12.59 s
Rattus norvegicus [18]
  Time: 10.19 s
Rattus norvegicus [19]
  Time: 14.16 s
Rattus norvegicus [20]
  Time: 14.7 s
Rattus norvegicus [21]
  Time: 14.75 s
Rattus norvegicus [22]
  Time: 5.7 s
Rattus norvegicus [23]
  Time: 16.33 s
Rattus norvegicus [24]
  Activity: 35.28%
Rattus norvegicus [25]
  Activity: 50.67%
Rattus norvegicus [26]
  Activity: 65.75%
Rattus norvegicus [27]
  Activity: 31.8%
[28]
  concentration at 2 h: 110 to 140 nM
[29]
  concentration at 2 h: 700 to 1050 nM
[30]
  Kp at 2 h: 0.1 to 0.2

## COc1cc(OC)c(NC(=O)Nc2cc(C)on2)cc1Cl
[31]
  concentration at 1 h: 50.8 ng/g
[32]
  concentration at 1 h: 43.1 ng/mL
[33]
  Kp at 1 h: 1.18

## Cc1cc(/C(=C/Nc2ccc(Cl)cc2)C(=O)Nc2ccc(Cl)cc2)on1 [AVL-3288]
[34]
  concentration at 10 min: 1000 nM
[35]
  concentration at 1.5 h: 300 nM
[36]
  concentration: 150 to 300 nM

## OCc1sc(Nc2ccc(F)c(C(F)(F)F)c2)nc1-c1ccncc1
[37]
  concentration at 0.5 h: 1910 ng/g
[38]
  concentration at 0.5 h: 5920 ng/mL
[39]
  Kp at 0.5 h: 0.3
